Laboratory results taken from the NIST ThermoML archive (doi:10.1021/acs.jced.9b00001).
Several values for one entry are separate records, joined by “and”; a condition that tells them apart may be missing. Equal entries are not always repeated.

Conditions: Liquid, Closed cell (Static) method

FC(F)(F)/C=C/Cl [(E)-1-chloro-3,3,3-trifluoroprop-1-ene]
Conditions	vapor or sublimation pressure
253.17 K	17.85 kPa
257.16 K	22.05 kPa
260.17 K	25.84 kPa
263.21 K	30.13 kPa
267.04 K	36.26 kPa and 36.26 kPa
270.14 K	41.85 kPa
273.14 K	47.91 kPa
277.11 K	57.02 kPa
280.14 K	64.83 kPa
283.09 K	73.21 kPa
287.12 K	86.04 kPa
290.14 K	96.6 kPa
290.16 K	96.73 kPa
293.09 K	108.04 kPa
293.17 K	108.4 kPa
297.15 K	125.37 kPa
297.16 K	125.42 kPa
300.15 K	139.48 kPa
303.16 K	154.83 kPa
307.16 K	177.3 kPa
310.15 K	195.73 kPa
313.15 K	215.48 kPa
317.16 K	244.36 kPa
320.16 K	267.95 kPa
323.15 K	293.08 kPa
323.25 K	293.99 kPa
323.36 K	295.01 kPa
327.16 K	329.62 kPa
330.15 K	359.02 kPa
333.14 K	390.34 kPa and 390.35 kPa
333.15 K	390.53 kPa
337.15 K	435.75 kPa
340.15 K	472.19 kPa
343.13 K	510.48 kPa
343.15 K	510.8 kPa and 510.94 kPa
343.19 K	511.2 kPa
347.15 K	566.08 kPa
350.16 K	610.55 kPa
353.18 K	657.68 kPa and 657.72 kPa
353.19 K	657.8 kPa and 657.95 kPa
357.16 K	724.03 kPa
360.16 K	777.18 kPa
363.17 K	833.48 kPa
363.2 K	834.12 kPa
363.23 K	834.57 kPa and 835.18 kPa
367.17 K	913.02 kPa
370.17 K	976.1 kPa
373.17 K	1042.6 kPa and 1043.1 kPa
373.19 K	1043.2 kPa and 1043.3 kPa
377.15 K	1136.1 kPa
380.15 K	1210.4 kPa
383.2 K	1289.7 kPa
383.21 K	1289.9 kPa
383.22 K	1290.5 kPa and 1290.6 kPa
387.16 K	1398.3 kPa
390.15 K	1484.8 kPa
393.17 K	1576.2 kPa
393.2 K	1577.7 kPa
393.21 K	1577.4 kPa and 1578 kPa
397.18 K	1704 kPa
397.22 K	1705.7 kPa
400.23 K	1806.9 kPa
400.24 K	1806.7 kPa
403.14 K	1908.4 kPa
403.15 K	1909 kPa
403.22 K	1911.4 kPa and 1911.9 kPa
403.26 K	1912.9 kPa
407.13 K	2055.5 kPa
408.25 K	2098.3 kPa
410.17 K	2173.3 kPa
413.1 K	2291.7 kPa
413.18 K	2294.5 kPa
413.19 K	2294.6 kPa and 2295.1 kPa and 2294.9 kPa
417.18 K	2463.9 kPa
418.23 K	2510.4 kPa
420.13 K	2595.8 kPa
423.15 K	2735.4 kPa and 2736 kPa
423.18 K	2737.1 kPa
423.19 K	2737.5 kPa
427.19 K	2932.7 kPa
430.25 K	3090.6 kPa
